Tests used:
Neuro2A cells = test: MPP+ induced toxicity in Neuro2A cells; type: cell-based
Procedure: MPP+, eradicates approximately 75% of the cells in 24 hours. […] Naive Neuro2A cells (FIG. 2A) or SH-SY5Y neuroblastoma cells FIG. 2B,C) were cultured in RPMI 1640, 10% fetal bovine serum at 37° C. Cells were pretreated with compound 3 for 12-24 h. Subsequent change of culture medium with addition of 0, 1, 2 and 4 mM MPP+ induced cell death. MTT assays determined the relative number of surviving cells FIG. 2D).

noradrenaline levels = test: Striatal noradrenaline levels by HPLC-ECD; type: in vivo, mouse; conditions: 4 hours
Procedure: (§1) 4 hours after dosing animals were killed by cervical dislocation, brains were removed, and the striata were dissected on ice. The samples were immediately frozen and stored at −80° C. until use. The tissues were processed for the analysis by high performance liquid chromatography (HPLC) with an electrochemical detector (ECD) (Emmanouil et al., 2006). The dissected tissues were weighed, homogenized, and deproteinized in 0.2 N perchloric acid solution containing 7.9 mM Na2S2O5 and 1.3 mM Na2EDTA. The homogenate was centrifuged at 37,000×g for 30 minutes, and the supernatant was stored at −80° C. until assayed. A reverse-phase ion-pair chromatography was used in all analyses, and the mobile phase consisted of an acetonitrile-50 mM phosphate buffer at pH 3.0, containing 5-octylsulfate sodium salt (300 mg/L) as the ion-pair reagent and (20 mg/L) Na2EDTA. Reference standards were prepared in 0.2 N perchloric acid solution containing 7.9 mM Na2S2O5 and 1.3 mM Na2EDTA. Samples were quantified by comparison of the areas under the peaks with those of reference standards using HPLC software (Chromatography Station for Windows™, Watrex International Inc., San Francisco, Calif.) (FIG. 3D).

[1] = tested on: LRRK2-G2019S mutated DAergic neurons; test: Neurite phenotypes of PD patient LRRK2-G2019S iPSc-derived DAergic neurons; type: cell-based, human; conditions: 12.5 μM for 14 days
Procedure: To ascertain the translational therapeutic potential of compound 3, we tested whether human midbrain-specific iPSc-derived DAergic neurons, as indicated by positive staining and qPCR for the neuronal markers MAP2, TH, FoxA2, Lmx1 and En1, can be protected from MPP+ toxicity. Compound 3 was able to double the number of surviving neurons after MPP+ exposure within 24 hours, compared to vehicle (FIGS. 72J-72L). The surviving control neurons had fewer and retreating projections, indicating compromised function (FIG. 72K) while the neurons that had received compound 3 had retained a complex network of projections and contacts (FIG. 72L). In addition, we tested compound 3 in iPSc-derived DAergic neurons from a PD patient carrying the LRRK2-G2019S mutation.

c-jun = test: Midbrain c-jun expression by qPCR after administration to mice; type: in vivo, mouse; conditions: IP compound 3, qPCR 2 hours after administration
Procedure: FIGS. 69A-69C show the brain penetration, half-life, and c-jun transcriptional activation of compound 3. […] Mice (n=5) were sacrificed 1, 2, 4, 8 and 24 hours after IP administration and brains were dissected 1, 2, 4, 8 and 24 hours post administration. The concentrations of the parent compound in plasma and brain were determined by LC/MSMS.
To assess the neuroprotective effect of compound 3, this compound was dosed to wt mice intraperitoneally (IP) at 10 mg/kg injections of compound 3 in Ethanol:PG:Saline 10:30:60. After 2 h and 4 h animals (n=3 per time point) were sacrificed, and their brains obtained. After extraction c-jun and tyrosine hydroxylase (TH) levels in brain extract were determined by qPCR (FIG. 1E, 1F).

striatal DA levels = test: Striatal dopamine and metabolite levels by HPLC-ECD in wild type mice; type: in vivo, mouse
Procedure: as §1, with “hours after dosing, animals were” for “hours after dosing animals were”, “deproteinized in 0.2N perchloric acid” for “deproteinized in 0.2 N perchloric acid”, “San Francisco, Calif.). […]” for “San Francisco, Calif.) (FIG. 3D).”

For `C=CCc1c(N(C)c2ccc(C(=O)O)cc2)nc(-c2ccccc2)nc1C(F)(F)F` [Example 3, 4-((5-allyl-2-phenyl-6-(trifluoromethyl)pyrimidin-4-yl)(methyl)amino)benzoic acid], the “protection from MPP+ induced toxicity” value (Neuro2A cells) was “protects”, the noradrenaline levels (noradrenaline levels; IP 10 mg/kg) was “remained unaffected” and the noradrenaline levels (noradrenaline levels; wild type C57/BL6 mice, single IP 20 mg/kg) was “did not increase”. For the same molecule, the “increase of neurite branching” value [1] was 650%, the “increase of neurite length” value [1] was 83% and the “increase of neurite number” value [1] was 38%. For the same molecule, the midbrain c-jun expression (c-jun) was “increased”, the “increase of striatal DA levels and dopamine metabolite (DOPAC and HVA) levels” value (striatal DA levels; wild type C57/BL6 mice, single IP 20 mg/kg, 4 hours after dosing) was 33% and the “striatal DA and DA metabolite levels” value (striatal DA levels; wt mice, single IP 10 mg/kg, 4 hours) was “increased”.

Source: patent US10946019B2, “Nurr1:RXR activating compounds for simultaneous treatment of symptoms and pathology of Parkinson's disease” (priority 2015, dated 2021)
